The record followed here is patent US11597724B2, “Herbicidally active 3-phenylisoxazoline-5-carboxamides of tetrahydro and dihydrofuran carboxylic acids and esters” (Bayer Aktiengesellschaft, priority 2017, dated 2023).

Holding throughout (assay type): in vivo
One test has as its system Amaranthus retroflexus. As to the kind of experiment: Post-emergence herbicidal activity against AMARE. The following applies: dosage 320 g/ha, rated about 3 weeks after treatment; for pest or weed control at 320 g/ha: Amaranthus retroflexus, 504 h. Summed up:
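Greenhouse pots of sandy loam; plants sprayed at one-leaf stage, 2 to 3 weeks after sowing, with WP or EC formulations in water plus 0.5% additive at 600 l/ha. Activity rated visually after about 3 weeks against untreated controls (100% = plants dead, 0% = like control).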

A further test deals with Viola tricolor. The experiment in a line: Post-emergence herbicidal activity against VIOTR. As to conditions: dosage 320 g/ha, rated about 3 weeks after treatment; for pest or weed control at 320 g/ha: Viola tricolor, 504 h. Summed up: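 Greenhouse plants in sandy loam treated at one-leaf stage, 2 to 3 weeks after sowing, by spraying WP or EC formulations with 0.5% additive at 600 l/ha water. Activity rated visually after about 3 weeks versus untreated controls, 100% = plants dead, 0% = like control.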

Test [1] in a line: Post-emergence treatment, summary over harmful plants. The following applies: 504 h, application rate of 0.32 kg of active substance or less per hectare, read-out: herbicidal action, post-emergence treatment (very good herbicidal activity). Summed up:
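Greenhouse-grown weeds and crops were sprayed at the one-leaf stage (2–3 weeks post-sowing) with WP or EC formulations plus 0.5% additive at 600 l/ha water. About 3 weeks later, activity was visually rated against untreated controls (100% = dead plants, 0% = like control).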

The subject of another test is Alopecurus myosuroides. As to the kind of experiment: Pre-emergence herbicidal activity against ALOMY. As to conditions: Alopecurus myosuroides, 504 h, dosage 80 g/ha, scored visually after about 3 weeks vs untreated controls (100% = plants have died, 0% = like control plants). From the text: 1. Pre-Emergence Herbicidal Action and Crop Plant Compatibility Seeds of monocotyledonous and dicotyledonous weed plants and crop plants are placed in plastic or wood fiber pots and covered with soil. The compounds of the invention, formulated in the form of wettable powders (WP) or as emulsion concentrates (EC), are then applied onto the surface of the covering soil as aqueous suspension or emulsion with addition of 0.5% additive at a water application rate of 600 l/ha (converted). After the treatment, the pots are placed in a greenhouse and kept under good growth conditions for the trial plants. After about 3 weeks, the effect of the preparations is scored visually in comparison with untreated controls as percentages. For example, 100% activity=the plants have died, 0% activity=like control plants. ABUTH: Abutilon theophrasti ALOMY: Alopecurus myosuroides

The next test has as its system Abutilon theophrasti. The experiment in a line: Post-emergence herbicidal activity against ABUTH. The following applies: dosage 320 g/ha, rated about 3 weeks after treatment; for pest or weed control at 320 g/ha: Abutilon theophrasti, 504 h. Summed up:
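Greenhouse-grown plants treated at one-leaf stage, 2 to 3 weeks after sowing, with WP or EC formulations sprayed as aqueous suspension/emulsion plus 0.5% additive at 600 l/ha. Activity rated visually about 3 weeks later versus untreated controls (100% = plants dead, 0% = like control).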

In a further test the test system is Stellaria media. As to the kind of experiment: Post-emergence herbicidal activity against STEME. The following applies: dosage 320 g/ha, rated about 3 weeks after treatment; for pest or weed control at 320 g/ha: Stellaria media, 504 h. Summed up: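 Greenhouse plants treated at one-leaf stage, 2–3 weeks after sowing, by spraying WP or EC formulations with 0.5% additive at 600 l/ha water. Visual rating about 3 weeks later versus untreated controls (100% = plants dead, 0% = like controls).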

As to `COC(=O)C1=C[C@@H](NC(=O)C2(C)CC(c3cccc(F)c3)=NO2)CO1` (stereo partly drawn) [I-46, methyl (3R)-3-[[3-(3-fluorophenyl)-5-methyl-4H-isoxazole-5-carbonyl]amino]-2,3-dihydrofuran-5-carboxylate], the pest or weed control at 320 g/ha in the test with Amaranthus retroflexus is 80%; in the test on Viola tricolor, 90%; in test [1], 80 to 100%; in the test with Abutilon theophrasti it was 80%; in the test on Stellaria media, 90%. For the same compound, the pest or weed control at 80 g/ha in the test with Alopecurus myosuroides came to 100%.

Take `COC(=O)[C@H]1C[C@@H](NC(=O)C2(C)CC(c3cc(F)cc(F)c3)=NO2)CO1` (relative stereo) [I-01, methyl cis-4-[[3-(3,5-difluorophenyl)-5-methyl-4H-isoxazole-5-carbonyl]amino]tetrahydrofuran-2-carboxylate]: the pest or weed control at 320 g/ha in the test on Amaranthus retroflexus is 80%; with Viola tricolor, 90%; in test [1], 80 to 100%; with Abutilon theophrasti it was 80%; in the test with Stellaria media, 90%. This compound displayed a pest or weed control at 80 g/ha in the test with Alopecurus myosuroides of 100%.

For `C=C[C@]1(C(=O)N[C@H]2CO[C@@H](C(=O)OCC)C2)CC(c2cc(F)cc(F)c2)=NO1` (mixture of isomers) [I-35, ethyl cis-4-[[(5S)-3-(3,5-difluorophenyl)-5-vinyl-4H-isoxazole-5-carbonyl]amino]tetrahydrofuran-2-carboxylate], the pest or weed control at 320 g/ha in the test on Amaranthus retroflexus is 90%; in the test with Viola tricolor it was 80%; in test [1], 80 to 100%; with Abutilon theophrasti it was 80%; in the test with Stellaria media, 90%. Further, the pest or weed control at 80 g/ha in the test on Alopecurus myosuroides worked out at 100%.

In the case of `C=C[C@]1(C(=O)N[C@H]2CO[C@@H](C(=O)OC)C2)CC(c2cc(F)cc(F)c2)=NO1` (mixture of isomers) [I-10, methyl cis-4-[[(5S)-3-(3,5-difluorophenyl)-5-vinyl-4H-isoxazole-5-carbonyl]amino]tetrahydrofuran-2-carboxylate], the pest or weed control at 320 g/ha in the test with Amaranthus retroflexus is 80%; in the test with Viola tricolor, 80%; in test [1], 80 to 100%; with Abutilon theophrasti, 90%; in the test with Stellaria media it was 90%. The pest or weed control at 80 g/ha with Alopecurus myosuroides is 100%.

For the compound `C=C[C@]1(C(=O)N[C@H]2CO[C@@H](C(=O)OC(C)C)C2)CC(c2cc(F)cc(F)c2)=NO1` (mixture of isomers) [I-36, isopropyl cis-4-[[(5S)-3-(3,5-difluorophenyl)-5-vinyl-4H-isoxazole-5-carbonyl]amino]tetrahydrofuran-2-carboxylate], the pest or weed control at 320 g/ha in the test with Amaranthus retroflexus is 90%; with Viola tricolor, 90%; in test [1], 80 to 100%; with Abutilon theophrasti, 90%; with Stellaria media, 90%. This compound also showed a pest or weed control at 80 g/ha in the test with Alopecurus myosuroides of 100%.

Regarding `C=C[C@]1(C(=O)N[C@H]2CO[C@@H](C(=O)OC)C2)CC(c2cc(F)cc(F)c2)=NO1` (single isomer, unassigned) [I-12], the “Post-emergence herbicidal activity against AMARE in %” value with Amaranthus retroflexus is reported as 90%. Moreover, in the test with Viola tricolor, the “Post-emergence herbicidal activity against VIOTR in %” value is listed as 100%. Moreover, the pest or weed control at 320 g/ha in test [1] fell in the range of 80 to 100%. This compound also came in with a pest or weed control at 80 g/ha with Alopecurus myosuroides of 100%. In addition, the “Post-emergence herbicidal activity against ABUTH in %” value in the test on Abutilon theophrasti came out at 90%. In addition, the “Post-emergence herbicidal activity against STEME in %” value in the test with Stellaria media was 90%.

As to `C=C[C@]1(C(=O)N[C@H]2CO[C@@H](C(=O)OCc3ccccc3)C2)CC(c2cc(F)cc(F)c2)=NO1` (mixture of isomers) [I-37, benzyl cis-4-[[(5S)-3-(3,5-difluorophenyl)-5-vinyl-4H-isoxazole-5-carbonyl]amino]tetrahydrofuran-2-carboxylate], the pest or weed control at 320 g/ha in the test on Amaranthus retroflexus was 80%; in the test on Viola tricolor, 80%; in test [1] it was 80 to 100%; with Abutilon theophrasti, 80%; with Stellaria media, 90%. Also, the pest or weed control at 80 g/ha with Alopecurus myosuroides came to 100%.
